Data reported in patent US9969694B2, “N-(arylalkyl)-N′-pyrazolyl-urea, thiourea, guanidine and cyanoguanidine compounds as TrkA kinase inhibitors” (Array BioPharma Inc., priority 2012, dated 2018).

molecular target: T1, His-tagged recombinant human TrkA (Homo sapiens, UniProt P04629); experiment: TrkA Kinase Binding Assay (LanthaScreen Eu); settings: averaged IC50; TR-FRET binding, 60 min, 22° C.; read-out: TrkA Enzyme IC50
T1 construct: 6HIS tagged cytoplasmic domain from Invitrogen, Catalog No. PV3144; purchased Invitrogen PV3144
Protocol: TrkA binding activity was determined in a TrkA LanthaScreen™ Eu Kinase Binding Assay. 5 nM His-tagged recombinant human TrkA (6HIS tagged cytoplasmic domain from Invitrogen, Catalog No. PV3144) was incubated with 4 nM Alexa-Fluor® Tracer 236 (Invitrogen Cat. No. PV5592), 2 nM biotinylated anti-His (Invitrogen Cat. No. PV6090), and 2 nM europium-labeled Streptavidin (Invitrogen Cat. No. PV5899), in buffer (25 mM MOPS, pH 7.5, 5 mM MgCl2, 0.005% Triton X-100). Three fold serial dilutions of compounds of the invention in DMSO were added to a final percentage of 2% DMSO. After 60-minute incubation at 22° C., the reaction was measured using the EnVision mutlimode plate reader (PerkinElmer) via TR-FRET dual wavelength detection at […]. The percent of control was calculated using a ratiometric emission factor. The IC50 values were determined by fitting a four parameter model to the percent of control data.
Table A provides averaged IC50 values for compounds of the invention when tested in the assay of Example A, where A represents an averaged IC50 value <100 nM; B represents an averaged IC50 value from 100 to 1,000 nM; and C represents an average 1050 value above 1000 nM.

T1 sequence (P04629 440-796 limits assumed): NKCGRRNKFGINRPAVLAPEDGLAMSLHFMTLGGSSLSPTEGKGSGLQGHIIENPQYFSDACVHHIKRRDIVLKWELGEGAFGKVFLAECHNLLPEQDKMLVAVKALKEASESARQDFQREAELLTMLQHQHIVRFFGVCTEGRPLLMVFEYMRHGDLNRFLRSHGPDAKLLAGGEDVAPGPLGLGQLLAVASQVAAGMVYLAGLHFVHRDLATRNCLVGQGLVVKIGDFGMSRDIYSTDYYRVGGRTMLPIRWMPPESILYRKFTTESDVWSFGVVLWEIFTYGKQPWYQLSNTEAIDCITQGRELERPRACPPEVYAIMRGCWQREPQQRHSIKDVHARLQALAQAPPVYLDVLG

Structure (SMILES)	IC50
COCc1ccc(C2CC2(F)F)c(CNC(=O)Nc2c(C)c(-c3cnn(C)c3)nn2-c2ccccc2)c1 (stereo not drawn) [Example 25, 1-(2-(2,2-difluorocyclopropyl)-5-(methoxymethyl)benzyl)-3-(1′,4-dimethyl-1-phenyl-1H,1′H-[3,4′-bipyrazol]-5-yl)urea 2,2,2-trifluoroacetate]	< 100 nM
COCc1ccc(OC(F)(F)F)c(CNC(=O)Nc2c(C)c(-c3ccc(OC)nc3)nn2-c2ccccc2)c1 [Example 53, 1-(5-(methoxymethyl)-2-(trifluoromethoxy)benzyl)-3-(3-(6-methoxypyridin-3-yl)-4-methyl-1-phenyl-1H-pyrazol-5-yl)urea]	< 100 nM
COCc1ccc(OC(F)(F)F)c(CNC(=O)Nc2c(C)c(O[C@@H]3CCN(C)C3)nn2-c2ccccc2)c1 [Example 82, (R)-1-(5-(methoxymethyl)-2-(trifluoromethoxy)benzyl)-3-(4-methyl-3-((1-methylpyrrolidin-3-yl)oxy)-1-phenyl-1H-pyrazol-5-yl)urea]	< 100 nM
CNC(=O)c1nn(-c2ccccc2)c(NC(=O)NCc2cc(COC)ccc2OC(F)(F)F)c1C [Example 55, 5-(3-(5-(methoxymethyl)-2-(trifluoromethoxy)benzyl)ureido)-N,4-dimethyl-1-phenyl-1H-pyrazole-3-carboxamide]	< 100 nM
Cc1c(-c2cnn(C)c2)nn(-c2ccccc2)c1NC(=O)NCc1cccc2ccccc12 [Example 43, 1-(1′,4-dimethyl-1-phenyl-1H,1′H-3,4′-bipyrazol-5-yl)-3-(naphthalen-1-ylmethyl)urea]	100 to 1000 nM
CNC(=O)c1nn(-c2ccccc2)c(NC(=O)NCc2cc(COC)ccc2OC(F)F)c1C [Example 56, 5-(3-(2-(difluoromethoxy)-5-(methoxymethyl)benzyl)ureido)-N,4-dimethyl-1-phenyl-1H-pyrazole-3-carboxamide]	< 100 nM
COCc1ccc(C2CC2)c(CNC(=O)Nc2c(C)c(-c3ccn(C)c(=O)c3)nn2-c2ccccc2)c1 [Example 7, 1-(2-cyclopropyl-5-(methoxymethyl)benzyl)-3-(4-methyl-3-(1-methyl-2-oxo-1,2-dihydropyridin-4-yl)-1-phenyl-1H-pyrazol-5-yl)urea]	< 100 nM
COCc1ccc(OC(F)(F)F)c(CNC(=O)Nc2c(C)c(OC3CC4(CNC4)C3)nn2-c2ccccc2)c1 [Example 79, 1-(3-(2-azaspiro[3.3]heptan-6-yloxy)-4-methyl-1-phenyl-1H-pyrazol-5-yl)-3-(5-(methoxymethyl)-2-(trifluoromethoxy)benzyl)urea]	< 100 nM
COCc1ccc(OC(F)(F)F)c(CNC(=O)Nc2c(C)c(O[C@H]3CCNC3)nn2-c2ccccc2)c1 [Example 83, (S)-1-(5-(methoxymethyl)-2-(trifluoromethoxy)benzyl)-3-(4-methyl-1-phenyl-3-(pyrrolidin-3-yloxy)-1H-pyrazol-5-yl)urea]	< 100 nM
COCc1ccc(OC(F)(F)F)c(CNC(=O)Nc2c(C)c(OC[C@@H]3CCC(=O)N3)nn2-c2ccccc2)c1 [Example 131, (S)-1-(5-(methoxymethyl)-2-(trifluoromethoxy)benzyl)-3-(4-methyl-3-((5-oxopyrrolidin-2-yl)methoxy)-1-phenyl-1H-pyrazol-5-yl)urea]	< 100 nM
COCc1ccc(OC(F)(F)F)c(CNC(=O)Nc2c(C)c(OCc3nnc(C)o3)nn2-c2ccccc2)c1 [Example 61]	< 100 nM
COCc1ccc(C2CCC2)c(CNC(=O)Nc2c(C)c(OC[C@H]3COC(C)(C)O3)nn2-c2ccccc2)c1 [Example 124, (S)-1-(2-cyclobutyl-5-(methoxymethyl)benzyl)-3-(3-((2,2-dimethyl-1,3-dioxolan-4-yl)methoxy)-4-methyl-1-phenyl-1H-pyrazol-5-yl)urea]	< 100 nM
COCc1ccc(OC(F)(F)F)c(CNC(=O)Nc2c(C)c(OC3CNC3)nn2-c2ccccc2)c1 [Example 89, 1-(3-(azetidin-3-yloxy)-4-methyl-1-phenyl-1H-pyrazol-5-yl)-3-(5-(methoxymethyl)-2-(trifluoromethoxy)benzyl)urea]	< 100 nM
COCc1ccc(OC(F)(F)F)c(CNC(=O)Nc2c(C)c(OCCF)nn2-c2ccccc2)c1 [Example 60, 1-(3-(2-fluoroethoxy)-4-methyl-1-phenyl-1H-pyrazol-5-yl)-3-(5-(methoxymethyl)-2-(trifluoromethoxy)benzyl)urea]	< 100 nM
COCc1ccc(OC(F)F)c(CNC(=O)Nc2c(C)c(-c3ccc(C)nc3)nn2-c2ccccc2)c1 [Example 21, 1-(2-(difluoromethoxy)-5-(methoxymethyl)benzyl)-3-(4-methyl-3-(6-methylpyridin-3-yl)-1-phenyl-1H-pyrazol-5-yl)urea]	< 100 nM
COc1ccccc1CC(Cc1ccccc1)NC(=O)Nc1c2c(nn1-c1ccccc1)CCC2 (stereo not drawn) [Example 48, 1-(1-(2-methoxyphenyl)-3-phenylpropan-2-yl)-3-(2-phenyl-2,4,5,6-tetrahydrocyclopenta[c]pyrazol-3-yl)urea]	100 to 1000 nM
O=C(Nc1c2c(nn1-c1ccccc1)CCC2)NC(Cc1ccccc1)Cc1ccccc1 [Example 42, 1-(1,3-diphenylpropan-2-yl)-3-(2-phenyl-2,4,5,6-tetrahydrocyclopenta[c]pyrazol-3-yl)urea]	< 100 nM
COCc1ccc(OC(F)(F)F)c(CNC(=O)Nc2c(C)c(OCC3CNC3)nn2-c2ccccc2)c1 [Example 72, 1-(3-(azetidin-3-ylmethoxy)-4-methyl-1-phenyl-1H-pyrazol-5-yl)-3-(5-(methoxymethyl)-2-(trifluoromethoxy)benzyl)urea]	< 100 nM
Cc1c(OCC2CCN(C)CC2)nn(-c2ccccc2)c1NC(=O)NCc1ccccc1OC(F)(F)F [Example 115, 1-(4-methyl-3-((1-methylpiperidin-4-yl)methoxy)-1-phenyl-1H-pyrazol-5-yl)-3-(2-(trifluoromethoxy)benzyl)urea]	< 100 nM
COCc1ccc(OC(F)(F)F)c(CNC(=O)Nc2c(C)c(OC[C@@H]3CCNC[C@H]3F)nn2-c2ccccc2)c1 [Example 87, 1-(3-(((3S,4S)-3-fluoropiperidin-4-yl)methoxy)-4-methyl-1-phenyl-1H-pyrazol-5-yl)-3-(5-(methoxymethyl)-2-(trifluoromethoxy)benzyl)urea]	< 100 nM
COCc1ccc(OC(F)(F)F)c(CNC(=O)Nc2c(C)c(C3CCNCC3)nn2-c2ccccc2)c1 [Example 66, 1-(5-(methoxymethyl)-2-(trifluoromethoxy)benzyl)-3-(4-methyl-1-phenyl-3-(piperidin-4-yl)-1H-pyrazol-5-yl)urea]	< 100 nM
COCc1ccc(OC(F)(F)F)c(CNC(=O)Nc2c(C)c(OC[C@H](C)N)nn2-c2ccccc2)c1 [Example 96, (S)-1-(3-(2-aminopropoxy)-4-methyl-1-phenyl-1H-pyrazol-5-yl)-3-(5-(methoxymethyl)-2-(trifluoromethoxy)benzyl)urea]	< 100 nM
COCc1ccc(OC(F)(F)F)c(CNC(=O)Nc2c(C)c(O[C@H]3C[C@H](N(C)C)C3)nn2-c2ccccc2)c1 [Example 104, 1-(3-((1r,3r)-3-(dimethylamino)cyclobutoxy)-4-methyl-1-phenyl-1H-pyrazol-5-yl)-3-(5-(methoxymethyl)-2-(trifluoromethoxy)benzyl)urea]	< 100 nM
O=C(Nc1c2c(nn1-c1ccccc1)CCC2)NC(Cc1ccccc1Cl)c1ccccc1 (stereo not drawn) [Example 45, 1-(2-(2-chlorophenyl)-1-phenylethyl)-3-(2-phenyl-2,4,5,6-tetrahydrocyclopenta[c]pyrazol-3-yl)urea]	100 to 1000 nM
COCc1cccc(C(Cc2ccccc2)NC(=O)Nc2c(C)c(-c3cnn(C)c3)nn2-c2ccccc2)c1 (stereo not drawn) [Example 129, 1-(1′,4-dimethyl-1-phenyl-1H,1′H-[3,4′-bipyrazol]-5-yl)-3-(1-(3-(methoxymethyl)phenyl)-2-phenylethyl)urea]	< 100 nM
COCc1cccc(C(C)NC(=O)Nc2c(C)c(-c3cnn(C)c3)nn2-c2ccccc2)c1 (stereo not drawn) [Example 29, 1-(1′,4-dimethyl-1-phenyl-1H,1′H-[3,4′-bipyrazol]-5-yl)-3-(1-(3-(methoxymethyl)phenyl)ethyl)urea 2,2,2-trifluoroacetate]	100 to 1000 nM
COCc1ccc(OC(F)(F)F)c(CNC(=O)Nc2c(C)c(-c3cncc(OC)c3)nn2-c2ccccc2)c1 [Example 54, 1-(5-(methoxymethyl)-2-(trifluoromethoxy)benzyl)-3-(3-(5-methoxypyridin-3-yl)-4-methyl-1-phenyl-1H-pyrazol-5-yl)urea]	< 100 nM
COCc1ccc(C2CC2)c(CNC(=O)Nc2c(C)c(-c3ccc(C)nc3)nn2-c2ccccc2)c1 [Example 3, 1-(2-cyclopropyl-5-(methoxymethyl)benzyl)-3-(4-methyl-3-(6-methylpyridin-3-yl)-1-phenyl-1H-pyrazol-5-yl)urea]	< 100 nM
COCc1ccc(OC(F)(F)F)c(CNC(=O)Nc2c(C)c(O[C@@H]3CCNC[C@@H]3F)nn2-c2ccccc2)c1 [Example 99, 1-(3-(((3S,4R)-3-fluoropiperidin-4-yl)oxy)-4-methyl-1-phenyl-1H-pyrazol-5-yl)-3-(5-(methoxymethyl)-2-(trifluoromethoxy)benzyl)urea]	< 100 nM
COCc1ccc(OC(F)(F)F)c(CNC(=O)Nc2c(C)c(OC3CCNCC3)nn2-c2ccccc2)c1 [Example 78, 1-(5-(methoxymethyl)-2-(trifluoromethoxy)benzyl)-3-(4-methyl-1-phenyl-3-(piperidin-4-yloxy)-1H-pyrazol-5-yl)urea]	< 100 nM
